# Assay results reported in patent US11174268B2, “Benzenesulfonamide compouds and their use as therapeutic agents” (Xenon Pharmaceuticals Inc., priority 2016, dated 2021).
# Structures can show the parent of a compound that is named as a salt.
# Experiments:
# NaV1.5 = NaV1.5 (Homo sapiens (Human), UniProt Q14524); assay: Sodium Influx Assay (Flux), NaV1.5; conditions: read-out: Flux NaV1.5 IC50; Trex HEK293 cells, ANG2 dye, inactivated state
# NaV1.1 [1] = target: T1, NaV1.1 (Homo sapiens (Human), UniProt P35498); assay: Electrophysiological Assay (EP), patch voltage clamp, NaV1.1; assay type: cell-based; conditions: HEK-293 cells, whole-cell patch clamp;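 also: sodium current block measured at ambient temperature, holding at fully inactivating potential, 20 ms repolarization to −150 mV before test pulse, versus 0.5% DMSO control currents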
# NaV1.6 [2] = target: T2, NaV1.6 (Homo sapiens (Human), UniProt Q9UQD0); assay: Electrophysiological Assay (EP), patch voltage clamp, NaV1.6; assay type: cell-based; conditions: HEK-293 cells, whole-cell patch clamp;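 also: sodium current recorded at ambient temperature, channels held inactivated then briefly repolarized to −150 mV for 20 ms before a test pulse, control currents in 0.5% DMSO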
# T2 sequence (Q9UQD0 whole entry): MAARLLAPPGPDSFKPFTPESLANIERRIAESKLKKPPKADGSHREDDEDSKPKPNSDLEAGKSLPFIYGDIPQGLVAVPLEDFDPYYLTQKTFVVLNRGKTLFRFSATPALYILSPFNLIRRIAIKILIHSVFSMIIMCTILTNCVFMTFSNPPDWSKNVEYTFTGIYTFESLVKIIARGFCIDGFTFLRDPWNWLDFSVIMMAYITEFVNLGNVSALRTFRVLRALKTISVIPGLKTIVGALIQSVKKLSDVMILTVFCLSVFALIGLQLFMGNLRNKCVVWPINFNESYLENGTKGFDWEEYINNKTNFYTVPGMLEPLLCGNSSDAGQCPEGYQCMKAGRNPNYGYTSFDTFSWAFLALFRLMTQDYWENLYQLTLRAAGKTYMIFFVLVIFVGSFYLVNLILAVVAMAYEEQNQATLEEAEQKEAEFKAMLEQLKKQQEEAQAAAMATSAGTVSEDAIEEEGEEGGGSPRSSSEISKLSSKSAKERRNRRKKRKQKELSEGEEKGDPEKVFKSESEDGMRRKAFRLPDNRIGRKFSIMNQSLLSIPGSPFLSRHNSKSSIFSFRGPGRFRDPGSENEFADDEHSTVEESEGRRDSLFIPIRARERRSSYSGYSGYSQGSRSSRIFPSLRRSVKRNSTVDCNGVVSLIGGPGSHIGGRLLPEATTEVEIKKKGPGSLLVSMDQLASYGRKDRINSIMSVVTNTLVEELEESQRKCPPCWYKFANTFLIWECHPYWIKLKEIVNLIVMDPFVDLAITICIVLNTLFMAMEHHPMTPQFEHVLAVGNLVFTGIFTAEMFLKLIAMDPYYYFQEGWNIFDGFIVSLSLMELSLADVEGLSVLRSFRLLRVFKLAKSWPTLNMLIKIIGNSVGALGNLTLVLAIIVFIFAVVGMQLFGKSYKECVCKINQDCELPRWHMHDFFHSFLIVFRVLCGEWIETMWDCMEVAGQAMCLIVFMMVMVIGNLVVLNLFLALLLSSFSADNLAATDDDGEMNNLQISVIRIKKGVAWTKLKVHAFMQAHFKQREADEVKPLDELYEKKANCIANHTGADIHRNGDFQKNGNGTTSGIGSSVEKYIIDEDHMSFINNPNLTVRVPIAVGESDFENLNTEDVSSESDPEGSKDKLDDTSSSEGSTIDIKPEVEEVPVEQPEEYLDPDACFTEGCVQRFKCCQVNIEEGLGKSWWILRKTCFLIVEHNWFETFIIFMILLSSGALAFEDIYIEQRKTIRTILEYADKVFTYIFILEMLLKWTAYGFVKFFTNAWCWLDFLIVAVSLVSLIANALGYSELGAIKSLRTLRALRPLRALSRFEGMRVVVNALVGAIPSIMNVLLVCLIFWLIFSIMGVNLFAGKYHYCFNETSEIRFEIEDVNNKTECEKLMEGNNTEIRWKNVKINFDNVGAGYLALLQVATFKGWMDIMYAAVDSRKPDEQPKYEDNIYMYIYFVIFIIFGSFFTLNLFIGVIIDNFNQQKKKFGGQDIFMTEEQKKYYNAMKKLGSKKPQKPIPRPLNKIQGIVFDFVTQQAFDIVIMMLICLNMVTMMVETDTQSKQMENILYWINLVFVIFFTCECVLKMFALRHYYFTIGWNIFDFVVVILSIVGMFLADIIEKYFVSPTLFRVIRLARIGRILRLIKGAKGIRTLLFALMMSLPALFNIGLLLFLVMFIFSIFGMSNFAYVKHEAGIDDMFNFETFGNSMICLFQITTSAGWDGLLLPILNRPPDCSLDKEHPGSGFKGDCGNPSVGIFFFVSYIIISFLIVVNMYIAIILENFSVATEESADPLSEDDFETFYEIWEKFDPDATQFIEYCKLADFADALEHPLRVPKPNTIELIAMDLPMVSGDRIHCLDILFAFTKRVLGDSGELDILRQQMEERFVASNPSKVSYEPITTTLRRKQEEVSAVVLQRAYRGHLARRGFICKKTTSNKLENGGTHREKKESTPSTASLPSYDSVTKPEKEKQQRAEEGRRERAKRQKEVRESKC
# NaV1.6 [3] = target: T2, NaV1.6; assay: Sodium Influx Assay (Flux), NaV1.6; assay type: cell-based; conditions: Trex HEK293 cells, ANG2 dye, inactivated state;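 also: Tetracycline-induced cells, compounds applied for one hour at room temperature with modulators holding channels open, IC50 from percent inhibition of sodium influx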
# NaV1.1 [4] = target: T1, NaV1.1; assay: Sodium Influx Assay (Flux), NaV1.1; assay type: cell-based; conditions: Trex HEK293 cells, ANG2 dye, inactivated state;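 also: channels co-expressed with human β1 subunit and held open by modulators, cells exposed to compounds for one hour at room temperature, IC50 from percent inhibition of influx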
# NaV1.5, sequence (Q14524 other isoform, or with tags, fused parts or gaps): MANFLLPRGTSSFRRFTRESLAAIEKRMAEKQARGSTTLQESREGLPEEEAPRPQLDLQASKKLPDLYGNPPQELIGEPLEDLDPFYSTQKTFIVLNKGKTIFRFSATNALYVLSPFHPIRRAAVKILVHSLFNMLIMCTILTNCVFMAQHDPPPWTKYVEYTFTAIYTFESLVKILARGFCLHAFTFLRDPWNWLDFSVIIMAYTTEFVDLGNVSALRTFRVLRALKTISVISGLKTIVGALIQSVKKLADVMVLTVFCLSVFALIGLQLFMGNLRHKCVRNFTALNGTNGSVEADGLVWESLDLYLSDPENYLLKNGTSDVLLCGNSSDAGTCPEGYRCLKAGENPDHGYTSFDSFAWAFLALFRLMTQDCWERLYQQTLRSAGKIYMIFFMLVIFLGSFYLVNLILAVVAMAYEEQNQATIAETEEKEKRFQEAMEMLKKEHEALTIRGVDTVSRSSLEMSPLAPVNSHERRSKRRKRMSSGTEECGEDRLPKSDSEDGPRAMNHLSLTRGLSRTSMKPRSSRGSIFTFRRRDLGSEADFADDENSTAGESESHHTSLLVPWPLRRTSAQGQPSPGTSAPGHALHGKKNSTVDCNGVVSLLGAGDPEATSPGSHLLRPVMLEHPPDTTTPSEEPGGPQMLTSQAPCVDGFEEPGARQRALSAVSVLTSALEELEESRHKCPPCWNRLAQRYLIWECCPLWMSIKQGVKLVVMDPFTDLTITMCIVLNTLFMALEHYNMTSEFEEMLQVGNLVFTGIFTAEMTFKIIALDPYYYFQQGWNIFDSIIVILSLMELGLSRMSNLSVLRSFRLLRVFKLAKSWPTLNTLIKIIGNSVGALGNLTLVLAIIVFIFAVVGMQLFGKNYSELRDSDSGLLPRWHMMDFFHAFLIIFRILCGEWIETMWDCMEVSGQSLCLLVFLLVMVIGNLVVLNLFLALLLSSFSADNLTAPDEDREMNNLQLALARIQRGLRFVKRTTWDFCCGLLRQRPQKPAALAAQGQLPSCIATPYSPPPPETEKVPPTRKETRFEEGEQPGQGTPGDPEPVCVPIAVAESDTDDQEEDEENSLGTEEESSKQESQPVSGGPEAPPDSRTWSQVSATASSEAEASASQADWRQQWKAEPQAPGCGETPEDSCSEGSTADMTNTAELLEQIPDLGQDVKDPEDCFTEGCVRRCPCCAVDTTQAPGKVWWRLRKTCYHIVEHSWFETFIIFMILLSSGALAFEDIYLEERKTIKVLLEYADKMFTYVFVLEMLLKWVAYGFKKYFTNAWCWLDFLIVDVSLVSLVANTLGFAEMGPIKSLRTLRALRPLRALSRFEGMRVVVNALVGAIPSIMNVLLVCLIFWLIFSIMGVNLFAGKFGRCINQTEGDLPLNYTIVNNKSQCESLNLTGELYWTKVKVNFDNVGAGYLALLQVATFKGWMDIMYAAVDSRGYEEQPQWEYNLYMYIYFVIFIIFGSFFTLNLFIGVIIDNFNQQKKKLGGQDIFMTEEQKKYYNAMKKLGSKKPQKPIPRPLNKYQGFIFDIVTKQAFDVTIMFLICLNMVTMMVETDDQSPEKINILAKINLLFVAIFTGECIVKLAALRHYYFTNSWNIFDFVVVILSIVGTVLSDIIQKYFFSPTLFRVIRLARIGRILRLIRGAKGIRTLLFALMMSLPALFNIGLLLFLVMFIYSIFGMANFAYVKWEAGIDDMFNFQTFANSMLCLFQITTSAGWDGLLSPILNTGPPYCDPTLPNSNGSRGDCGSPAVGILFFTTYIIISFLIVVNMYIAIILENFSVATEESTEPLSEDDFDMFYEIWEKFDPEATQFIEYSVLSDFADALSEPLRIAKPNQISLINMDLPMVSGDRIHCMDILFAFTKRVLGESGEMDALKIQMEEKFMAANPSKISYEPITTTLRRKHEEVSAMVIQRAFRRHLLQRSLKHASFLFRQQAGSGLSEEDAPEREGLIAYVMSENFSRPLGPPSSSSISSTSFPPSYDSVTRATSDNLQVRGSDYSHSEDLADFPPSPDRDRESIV
Compound,IC50 (NaV1.1 [1]),IC50 (NaV1.6 [2]),IC50 (NaV1.6 [3]),IC50 (NaV1.1 [4]),IC50 (NaV1.5)
"3-chloro-4-(1-phenylethylamino)-N-(1,2,4-thiadiazol-5-yl)benzenesulfonamide [Example 142]",10000 nM,106 nM,187 nM,3230 nM,21200 nM
5-chloro-2-fluoro-4-((1-(2-fluorophenyl)ethyl)amino)-N-(thiazol-2-yl)benzenesulfonamide [Example 144],907 nM,34 nM,214 nM,2540 nM,9670 nM
"O=S(=O)(Nc1nccs1)c1ccc(N[C@H](c2ccccc2)C(F)(F)F)c(Cl)c1 [Example 4, (R)-3-chloro-N-(thiazol-2-yl)-4-((2,2,2-trifluoro-1-phenylethyl)amino)benzenesulfonamide formate]",5310 nM,41 nM,794 nM,3400 nM,7010 nM
"CC[C@H](Nc1ccc(S(=O)(=O)Nc2nccs2)cc1)c1ccccc1 [Example 84, (S)-4-((1-phenylpropyl)amino)-N-(thiazol-2-yl)benzenesulfonamide]",10000 nM,,,2410 nM,
"CCC(c1ccccc1)N(C)c1ccc(S(=O)(=O)Nc2nccs2)cc1Cl (stereo not shown) [Example 90, 3-chloro-4-(methyl(1-phenylpropyl)amino)-N-(thiazol-2-yl)benzenesulfonamide]",2010 nM,,,4050 nM,
"O=S(=O)(Nc1ccsn1)c1c(F)cc(NCc2c(F)cccc2CN2CCC2)cc1F [Example 188, 4-((2-(azetidin-1-ylmethyl)-6-fluorobenzyl)amino)-2,6-difluoro-N-(isothiazol-3-yl)benzenesulfonamide 2,2,2-trifluoroacetate]",,12 nM,25 nM,9200 nM,30000 nM
"O=S(=O)(Nc1cscn1)c1ccc(NCc2c(F)ccc(F)c2CN2CCC2)c(F)c1F [Example 213, 4-((2-(azetidin-1-ylmethyl)-3,6-difluorobenzyl)amino)-2,3-difluoro-N-(thiazol-4-yl)benzenesulfonamide 2,2,2-trifluoroacetate]",,21 nM,156 nM,30000 nM,30000 nM
"Cc1c(NCc2ccccc2CN2CCC2)cc(F)c(S(=O)(=O)Nc2ccncn2)c1F [Example 310, 4-((2-(azetidin-1-ylmethyl)benzyl)amino)-2,6-difluoro-3-methyl-N-(pyrimidin-4-yl)benzenesulfonamide 2,2,2-trifluoroacetate]",,11 nM,10 nM,20300 nM,30000 nM
"O=S(=O)(Nc1cccc(F)n1)c1c(F)cc(NCc2c(F)cccc2CN2CCC2)cc1F [Example 322, 4-((2-(azetidin-1-ylmethyl)-6-fluorobenzyl)amino)-2,6-difluoro-N-(6-fluoropyridin-2-yl)benzenesulfonamide formate]",,47 nM,114 nM,7750 nM,30000 nM
"O=S(=O)(Nc1ccccn1)c1c(F)cc(NCc2c(F)cccc2CN2CCC2)cc1F [Example 328, 4-((2-(azetidin-1-ylmethyl)-6-fluorobenzyl)amino)-2,6-difluoro-N-(pyridin-2-yl)benzenesulfonamide]",,1040 nM,3820 nM,30000 nM,30000 nM
"Cc1c(NCc2ccccc2CN2CCC2)cc(F)c(S(=O)(=O)Nc2ncns2)c1F [Example 330, 4-((2-(azetidin-1-ylmethyl)benzyl)amino)-2,6-difluoro-3-methyl-N-(1,2,4-thiadiazol-5-yl)benzenesulfonamide]",,1 nM,1 nM,2000 nM,30000 nM

# The remaining compounds from weak to strong by IC50 (NaV1.1 [4]), led by results:
IC50 (NaV1.1 [1]),IC50 (NaV1.6 [2]),IC50 (NaV1.6 [3]),IC50 (NaV1.1 [4]),Compound,IC50 (NaV1.5)
,81 nM,187 nM,30000 nM,"O=S(=O)(Nc1ccon1)c1c(F)cc(NCc2c(F)cccc2CN2CCC2)cc1F [Example 204, 4-((2-(azetidin-1-ylmethyl)-6-fluorobenzyl)amino)-2,6-difluoro-N-(isoxazol-3-yl)benzenesulfonamide 2,2,2-trifluoroacetate]",23100 nM
,23 nM,78 nM,25800 nM,"COC1(C)CN(Cc2cccc(F)c2CNc2cc(F)c(S(=O)(=O)Nc3cscn3)c(F)c2)C1 [Example 172, 2,6-difluoro-4-((2-fluoro-6-((3-methoxy-3-methylazetidin-1-yl)methyl)benzyl)amino)-N-(thiazol-4-yl)benzenesulfonamide formate]",30000 nM
,558 nM,4060 nM,16600 nM,"CCC(Nc1cc(F)c(S(=O)(=O)Nc2cccc(F)n2)cc1Cl)c1ccccc1 (stereo not shown) [Example 86, 5-chloro-2-fluoro-N-(6-fluoropyridin-2-yl)-4-((1-phenylpropyl)amino)benzenesulfonamide]",12700 nM
,3 nM,21 nM,10300 nM,"O=S(=O)(Nc1cscn1)c1c(F)cc(NCc2c(F)ccc(F)c2CN2CCC2)c(F)c1F [Example 215, 4-((2-(azetidin-1-ylmethyl)-3,6-difluorobenzyl)amino)-2,3,6-trifluoro-N-(thiazol-4-yl)benzenesulfonamide 2,2,2-trifluoroacetate]",21500 nM
,2 nM,8 nM,5300 nM,"Cc1c(NCc2c(F)cccc2CN2CCC2)cc(F)c(S(=O)(=O)Nc2cscn2)c1F [Example 304, 4-((2-(azetidin-1-ylmethyl)-6-fluorobenzyl)amino)-2,6-difluoro-3-methyl-N-(thiazol-4-yl)benzenesulfonamide 2,2,2-trifluoroacetate]",21200 nM
,2 nM,29 nM,4650 nM,"O=S(=O)(Nc1cscn1)c1cc(Cl)c(NCc2c(F)ccc3cn[nH]c23)cc1F [Example 334, 5-chloro-2-fluoro-4-(((6-fluoro-1H-indazol-7-yl)methyl)amino)-N-(thiazol-4-yl)benzenesulfonamide formate]",30000 nM
,1 nM,3 nM,4440 nM,"O=S(=O)(Nc1ncns1)c1c(F)cc(NCc2ccccc2CN2CCC2)c(Cl)c1F [Example 327, 4-((2-(azetidin-1-ylmethyl)benzyl)amino)-3-chloro-2,6-difluoro-N-(1,2,4-thiadiazol-5-yl)benzenesulfonamide formate]",30000 nM
,982 nM,328 nM,3910 nM,"Cc1cc(-c2cccc(F)c2CNc2cc(F)c(S(=O)(=O)Nc3cscn3)c(F)c2)ccn1 [Example 317, 2,6-difluoro-4-((2-fluoro-6-(2-methylpyridin-4-yl)benzyl)amino)-N-(thiazol-4-yl)benzenesulfonamide formate]",30000 nM
4340 nM,26 nM,181 nM,2360 nM,"C[C@H](Nc1ccc(S(=O)(=O)Nc2nccs2)c(F)c1Cl)c1ccccc1F [Example 9, (S)-3-chloro-2-fluoro-4-((1-(2-fluorophenyl)ethyl)amino)-N-(thiazol-2-yl)benzenesulfonamide]",4220 nM
420 nM,10 nM,137 nM,1630 nM,"C[C@H](Nc1cc(F)c(S(=O)(=O)Nc2nccs2)cc1Cl)c1cc(Cl)ccc1F [Example 8, (S)-5-chloro-4-((1-(5-chloro-2-fluorophenyl)ethyl)amino)-2-fluoro-N-(thiazol-2-yl)benzenesulfonamide]",5370 nM
